The term IC50 denotes the concentration that gives 50% inhibition. Higher therefore signals weaker potency.

This experiment is described as follows: Cytotoxicity against human NSCLC-L16 cells. In kind it is functional, cell-based.

Each structure is given as a SMILES string. Bounds are passed on as bounds.

Take `CC(C)CC(=O)C[C@](C)(O)[C@H]1CC[C@H]2[C@@H]3C[C@H](O[C@@H]4O[C@H](C)[C@@H](O)[C@H](O[C@@H]5O[C@H](C)[C@@H](O[C@@H]6O[C@H](CO)[C@H](O)[C@H](O)[C@H]6O[C@@H]6O[C@H](C)[C@H](O)[C@H](O[C@@H]7O[C@H](CO)[C@H](O)[C@H](O)[C@H]7O)[C@H]6O)[C@H](O)[C@H]5O[C@@H]5O[C@H](C)[C@@H](O)[C@H](O)[C@H]5O)[C@H]4C)[C@H]4C[C@@H](OS(=O)(=O)[O-])CC[C@]4(C)C3=CC[C@@]21C.[Na+]` [ASTERIIDOSIDE A]: the IC50 was over 30 µg/mL.
As for `C=C(CC[C@](C)(O)[C@H]1CC[C@H]2[C@@H]3C[C@H](O[C@@H]4O[C@H](C)[C@@H](O)[C@H](O[C@@H]5OC[C@@H](O[C@@H]6O[C@H](C)[C@H](O)[C@H](O)[C@H]6O[C@@H]6OC[C@H](O)[C@H](O[C@@H]7O[C@H](CO)[C@H](O)[C@H](O)[C@H]7O)[C@H]6O)[C@H](O)[C@H]5O[C@@H]5O[C@H](C)[C@@H](O)[C@H](O)[C@H]5O)[C@H]4C)[C@H]4C[C@@H](OS(=O)(=O)[O-])CC[C@]4(C)C3=CC[C@@]21C)C(C)C.[Na+]` [ASTERIIDOSIDE D], the figure is 11.4 µg/mL.
In turn, `CC(C)=CCC[C@](C)(O)[C@H]1CC[C@H]2[C@@H]3C[C@H](O[C@@H]4O[C@H](C)[C@@H](O)[C@H](O[C@@H]5OC[C@@H](O[C@@H]6O[C@H](C)[C@H](O)[C@H](O)[C@H]6O[C@@H]6OC[C@H](O)[C@H](O[C@@H]7O[C@H](CO)[C@H](O)[C@H](O)[C@H]7O)[C@H]6O)[C@H](O)[C@H]5O[C@@H]5O[C@H](C)[C@@H](O)[C@H](O)[C@H]5O)[C@H]4C)[C@H]4C[C@@H](OS(=O)(=O)[O-])CC[C@]4(C)C3=CC[C@@]21C.[Na+]` [ASTERIIDOSIDE E] showed an IC50 of 18.1 µg/mL.
As for `C[C@@H](C/C=C/[C@@H](C)[C@H]1[C@@H](O)[C@@H](O)[C@@H]2[C@]1(C)CC[C@@H]1[C@@]3(C)CC[C@H](O[C@@H]4OC[C@@H](O)[C@H](O)[C@H]4O)C[C@@H]3[C@@H](O)C[C@]12O)CO[C@@H]1OC[C@@H](O)[C@H](O)[C@H]1O` [ASTERIIDOSIDE F], the figure is over 30 µg/mL; as for `CC(C)[C@H](/C=C/[C@@H](C)[C@H]1C[C@@H](O)[C@@H]2[C@]1(C)CC[C@@H]1[C@@]3(C)CC[C@H](O[C@@H]4OC[C@@H](O)[C@H](O)[C@H]4O)C[C@@H]3[C@@H](O)[C@@H](O)[C@]12O)O[C@@H]1OC[C@@H](O)[C@H](OS(=O)(=O)[O-])[C@H]1O.[Na+]` [ASTERIIDOSIDE I], over 30 µg/mL; as for `CC(C)[C@@H](/C=C/[C@@H](C)[C@H]1C[C@H](O)[C@@H]2[C@]1(C)CC[C@@H]1[C@@]3(C)CC[C@H](O[C@@H]4OC[C@@H](O)[C@H](O)[C@H]4O)C[C@@H]3[C@H](O)C[C@]12O)COS(=O)(=O)[O-].[Na+]` [ASTERIIDOSIDE L], over 30 µg/mL.
